ChEMBL document CHEMBL1201862, “PubChem BioAssay data set” (2004)
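Interpolation was linear, between the two tested concentrations surrounding the appropriate level; five concentrations were tested over 48 hours in 96-well plates. GI50 is the concentration that inhibits growth by half.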 Activity calls are given as the source filed them. No stated cut-off is given here; in the data, active = GI50 up to about 1.1 µM and inactive = higher.

Assays:
Experiment in all cases: growth of human tumour cells (NCI), 48 h
786-0 = system: 786-0
PC-3 = system: PC-3
SNB-19 = system: SNB-19
MDA-MB-231 = system: MDA-MB-231
A549 = system: A549
SF-268 = system: SF-268
HCT-15 = system: HCT-15
EKVX = system: EKVX
A498 = system: A498
SK-MEL-2 = system: SK-MEL-2
MDA-MB-435 = system: MDA-MB-435
UO-31 = system: UO-31
SF-539 = system: SF-539
OVCAR-3 = system: OVCAR-3
Hs-578T = system: Hs-578T
TK-10 = system: TK-10
HT-29 = system: HT-29
HOP-92 = system: HOP-92
M14 = system: M14
SK-MEL-5 = system: SK-MEL-5
NCI/ADR-RES = system: NCI/ADR-RES
HL-60 = system: HL-60
SK-MEL-28 = system: SK-MEL-28
U-251 = system: U-251
NCI-H23 = system: NCI-H23
SF-295 = system: SF-295
HCT-116 = system: HCT-116
BT-549 = system: BT-549
NCI-H460 = system: NCI-H460
OVCAR-5 = system: OVCAR-5
NCI-H226 = system: NCI-H226
HOP-62 = system: HOP-62
MOLT-4 = system: MOLT-4
SN12C = system: SN12C
SR = system: SR
ACHN = system: ACHN
CAKI-1 = system: CAKI-1
SNB-75 = system: SNB-75
OVCAR-8 = system: OVCAR-8
OVCAR-4 = system: OVCAR-4
KM12 = system: KM12
UACC-62 = system: UACC-62
T47D = system: T47D
SW-620 = system: SW-620
LOX IMVI = system: LOX IMVI
SK-OV-3 = system: SK-OV-3
RPMI-8226 = system: RPMI-8226
Malme-3M = system: Malme-3M
HCC 2998 = system: HCC 2998
MCF7 = system: MCF7
DU-145 = system: DU-145
CCRF-CEM = system: CCRF-CEM
MDA-N = system: MDA-N
COLO 205 = system: COLO 205
UACC-257 = system: UACC-257
RXF 393 = system: RXF 393
NCI-H522 = system: NCI-H522
IGROV-1 = system: IGROV-1
K562 = system: K562

Cc1ccc(S(=O)(=O)N(CC(O)COc2ccccc2)c2c(F)c(F)cc(F)c2F)cc1 (stereo not given) was tested, and the GI50 (786-0) was 22.3 µM (inactive), the GI50 (PC-3) was 18.3 µM (inactive) and the GI50 (SNB-19) was 27.6 µM (inactive). For the same compound, the GI50 (MDA-MB-231) was 18.3 µM (inactive), the GI50 (A549) was 21.9 µM (inactive) and the GI50 (SF-268) was 18.7 µM (inactive). For the same compound, the GI50 (HCT-15) was 20.9 µM, the GI50 (EKVX) was 27.9 µM (inactive) and the GI50 (A498) was 20.3 µM (inactive). For the same compound, the GI50 (SK-MEL-2) was 17.2 µM (inactive), the GI50 (MDA-MB-435) was 16.9 µM (inactive) and the GI50 (UO-31) was 20.4 µM (inactive). For the same compound, the GI50 (SF-539) was 20 µM (inactive), the GI50 (OVCAR-3) was 20.5 µM (inactive) and the GI50 (Hs-578T) was 24.3 µM (inactive). The GI50 (TK-10) was 32.9 µM (inactive), the GI50 (HT-29) was 16.8 µM (inactive) and the GI50 (HOP-92) was 11.7 µM (inactive). The GI50 (M14) was 23.7 µM (inactive), the GI50 (SK-MEL-5) was 15.9 µM (inactive) and the GI50 (NCI/ADR-RES) was 18.1 µM (inactive). The GI50 (HL-60) was 4.21 µM (inactive), the GI50 (SK-MEL-28) was 19.5 µM (inactive) and the GI50 (U-251) was 21 µM (inactive). For the same compound, the GI50 (NCI-H23) was 18.8 µM (inactive), the GI50 (SF-295) was 24 µM (inactive) and the GI50 (HCT-116) was 37 µM (inactive). For the same compound, the GI50 (BT-549) was 24.5 µM (inactive), the GI50 (NCI-H460) was 16.7 µM (inactive) and the GI50 (OVCAR-5) was 29 µM (inactive). The GI50 (NCI-H226) was 23.1 µM (inactive), the GI50 (HOP-62) was 21.3 µM (inactive) and the GI50 (MOLT-4) was < 0.01 µM (active). For the same compound, the GI50 (SN12C) was 22.5 µM (inactive), the GI50 (SR) was 3.53 µM (inactive) and the GI50 (ACHN) was 21.2 µM (inactive). The GI50 (CAKI-1) was 15.3 µM (inactive), the GI50 (SNB-75) was 20.5 µM (inactive) and the GI50 (OVCAR-8) was 22.4 µM (inactive). For the same compound, the GI50 (OVCAR-4) was 18.7 µM (inactive), the GI50 (KM12) was 25.7 µM (inactive) and the GI50 (UACC-62) was 16.6 µM (inactive). The GI50 (T47D) was 19.7 µM (inactive), the GI50 (SW-620) was 30.3 µM (inactive) and the GI50 (LOX IMVI) was 16.6 µM (inactive). For the same compound, the GI50 (SK-OV-3) was 19.4 µM (inactive), the GI50 (RPMI-8226) was 18.7 µM (inactive) and the GI50 (Malme-3M) was 23.1 µM (inactive). For the same compound, the GI50 (HCC 2998) was 23.6 µM (inactive), the GI50 (MCF7) was 16.4 µM (inactive) and the GI50 (DU-145) was 40.8 µM (inactive). The GI50 (CCRF-CEM) was 33.4 µM (inactive), the GI50 (MDA-N) was 17.2 µM (inactive) and the GI50 (COLO 205) was 15.7 µM (inactive).

In the case of C=CC(=C)CCC(Br)C(C)(C)Br (stereo not given), the GI50 (786-0) is reported as 99.1 µM (inactive), the GI50 (PC-3) is reported as > 100 µM (inactive) and the GI50 (SNB-19) is reported as > 100 µM (inactive). The GI50 (MDA-MB-231) was 4.51 µM (inactive), the GI50 (A549) was > 100 µM (inactive) and the GI50 (SF-268) was > 100 µM (inactive). For the same compound, the GI50 (HCT-15) was over 100 µM, the GI50 (EKVX) was > 100 µM (inactive) and the GI50 (SK-MEL-2) was > 100 µM (inactive). The GI50 (MDA-MB-435) was > 100 µM (inactive), the GI50 (UO-31) was > 100 µM (inactive) and the GI50 (SF-539) was > 100 µM (inactive). For the same compound, the GI50 (OVCAR-3) was > 100 µM (inactive), the GI50 (Hs-578T) was > 100 µM (inactive) and the GI50 (TK-10) was > 100 µM (inactive). For the same compound, the GI50 (UACC-257) was > 100 µM (inactive), the GI50 (HT-29) was > 100 µM (inactive) and the GI50 (HOP-92) was 91.2 µM (inactive). For the same compound, the GI50 (M14) was 75.9 µM (inactive), the GI50 (RXF 393) was > 100 µM (inactive) and the GI50 (SK-MEL-5) was > 100 µM (inactive). The GI50 (NCI/ADR-RES) was > 100 µM (inactive), the GI50 (HL-60) was 17.1 µM (inactive) and the GI50 (SK-MEL-28) was > 100 µM (inactive). For the same compound, the GI50 (U-251) was > 100 µM (inactive), the GI50 (NCI-H23) was > 100 µM (inactive) and the GI50 (NCI-H522) was 15.7 µM (inactive). For the same compound, the GI50 (SF-295) was > 100 µM (inactive), the GI50 (HCT-116) was 54.3 µM (inactive) and the GI50 (BT-549) was > 100 µM (inactive). The GI50 (NCI-H460) was > 100 µM (inactive), the GI50 (OVCAR-5) was > 100 µM (inactive) and the GI50 (NCI-H226) was > 100 µM (inactive). For the same compound, the GI50 (HOP-62) was > 100 µM (inactive), the GI50 (MOLT-4) was 15.6 µM (inactive) and the GI50 (SN12C) was > 100 µM (inactive). For the same compound, the GI50 (IGROV-1) was 80.7 µM (inactive), the GI50 (SR) was > 100 µM (inactive) and the GI50 (ACHN) was > 100 µM (inactive). For the same compound, the GI50 (K562) was 40.3 µM (inactive), the GI50 (SNB-75) was > 100 µM (inactive) and the GI50 (OVCAR-8) was > 100 µM (inactive). For the same compound, the GI50 (OVCAR-4) was > 100 µM (inactive), the GI50 (KM12) was > 100 µM (inactive) and the GI50 (UACC-62) was > 100 µM (inactive). The GI50 (T47D) was 66.2 µM (inactive), the GI50 (SW-620) was 32.4 µM (inactive) and the GI50 (SK-OV-3) was > 100 µM (inactive). For the same compound, the GI50 (RPMI-8226) was 88.1 µM (inactive), the GI50 (Malme-3M) was 41.2 µM (inactive) and the GI50 (HCC 2998) was > 100 µM (inactive). For the same compound, the GI50 (MCF7) was 35.1 µM (inactive), the GI50 (DU-145) was > 100 µM (inactive) and the GI50 (CCRF-CEM) was 22.2 µM (inactive). The GI50 (MDA-N) was > 100 µM (inactive) and the GI50 (COLO 205) was 74 µM (inactive).
